From US20180092934A1, “COMPOSITION FOR DNA PROTECTION” (priority 2016, published 2018)

Experiments:
[1] = system: 8-hydroxy-2-deoxyguanosine (8-OHdG); test: Serum 8-OHdG ELISA, alcohol-induced DNA damage in rats; type: in vivo, Male Wistar albino rats; conditions: single oral dose in 30% alcohol 4 gm/kg, 4 hr data, n = 4
Excerpt: In nuclear and mitochondrial DNA, 8-hydroxy-2′-deoxyguanosine (8-OHdG) is one of the predominant forms of free radical-induced oxidative lesions, and is used as a biomarker for oxidative stress. Rat 8-OHdG ELISA kit from Elabscience is used for the assay. (Valavanidis A et al (2009). 8-hydroxy-2′-deoxyguanosine (8-OHdG): A critical biomarker of oxidative stress and carcinogenesis. J Environ Sci Health C Environ Carcinog Ecotoxicol Rev. 27(2):[…]).
(§1) Saline/Alcohol (4.0 gm/kg/day, p.o.)/Formulation with alcohol (4.0 gm/kg/day, p.o.) were administered (fed orally by orogastric cannula) for one day. Blood samples were collected before administration of the Saline/Alcohol/Formulation with alcohol and designated as ‘0’ hour, then 2 and 4 hours after the dose. For comet assay one part of the blood was collected in heparinised tube and the other part was allowed to clot to get serum for 8-OHdG assay. Single cell gel electrophoresis (SCGE, the Comet assay) was carried out using whole blood (Cheng-Hung Chuang, Miao-Lin Hu. Use of whole blood directly for single-cell gel electrophoresis (comet) assay in vivo and white blood cells for in vitro assay. Mutation Research; 564 (2004) 75-82.). In short, 15 μl of whole blood was mixed with low melting agarose and fixed on a microscope slide. Those are then lysed by buffer enriched with detergent and high salt. Concomitant electrophoresis at alkaline pH results in unwinding of DNA followed by structures close to comets, when observed by fluorescence microscopy. The intensity of the comet tail relative to the head presents the number of DNA breaks. The probable basis for this is that loops containing a break lose their super coiling and become free to extend toward the anode. This is followed by visual analysis with staining of DNA and calculating fluorescence to determine the extent of DNA damage (Collins, A. R. (2004). “The comet assay for DNA damage and repair: principles, applications, and limitations”. Mol. Biotechnol. 26 (3): 249-261). 8-hydroxy-2-deoxyguanosine was estimated (8-OHdG) by ELISA kit using competitive-ELISA as the method. The microtiter plate is pre-coated with 8-OHdG. 8-OHdG in the sample or standard competes with a fixed amount of 8-OHdG on the solid phase supporter for sites on the Biotinylated Detection Ab specific to 8-OHdG. Excess conjugate and unbound sample or standard were washed from the plate, and Avidin conjugated to Horseradish Peroxidase (HRP) is added to each microplate well. After incubation a TMB substrate solution is added to each well. The enzyme-substrate reaction is terminated by the addition of a sulphuric acid solution and the color change was measured by plate reader at a wavelength of 450 nm±2 nm. The concentration of 8-OHdG in the samples was then determined by comparing the OD of the samples to the standard curve (Szymańska-Chabowska A et al, Evaluation of DNA Damage in People Occupationally Exposed to Arsenic and Some Heavy Metals. Polish J. of Environ. Stud. Vol. 18, No. 6 (2009), 1131-1139).
(§2) % Protection=1−[(T−NS)/(AL−NS)]×100
(§3) T=Mean value of drug treated, NS=Mean value of normal control, AL=Mean value of alcohol alone.
(§4) Male Wistar albino rats weighing 150-200 g were procured and randomly divided into groups consisting of four (4) animals in each group. DNA damage was induced by alcohol in rats by oral administration of 30% alcohol (4 gm/kg/p.o.) once (single dose) and this group served as the negative control and treated groups received different formulations.
All drug solutions were prepared in 40% aqueous alcohol, adjusting the pH in the range of 5.0-10.0 for evaluation of alcohol induced DNA damage and protection against it. This solution was further diluted with distilled water to obtain 30% aqueous alcoholic solution and administered orally by gavage to different rats group of step (1a). […]

[2] = system: alcohol induced DNA damage; test: Comet assay (SCGE) on whole blood, alcohol-induced DNA damage in rats; type: in vivo, Male Wistar albino rats; conditions: single oral dose in 30% alcohol 4 gm/kg, 4 hr data, n = 4
Excerpt: The Single Cell Gel Electrophoresis assay (SCGE, also known as comet assay) is a straightforward and sensitive technique for the detection of DNA damage at the level of the individual eukaryotic cell. It is being used as a standard technique for evaluation of DNA damage/repair, biomonitoring and genotoxicity testing. It involves the encapsulation of cells in a low-melting-point agarose suspension, lysis of the cells in neutral or alkaline (pH>13) conditions, and electrophoresis of the suspended lysed cells. The term “comet” refers to the pattern of DNA migration through the electrophoresis gel, which often resembles a comet (Cheng-Hung Chuang, Miao-Lin Hu. Use of whole blood directly for single-cell gel electrophoresis (comet) assay in vivo and white blood cells for in vitro assay. Mutation Research; 564 (2004) 75-82.).
as §1, §2, §3
as §4, with “formulations. […]” for “formulations.”

Row | SMILES | 8OHdG Protection [1] [%] | COMET Protection [2] [%]
1 | CC1(C)[C@@H](O[C@H]2O[C@H](C(=O)O)[C@@H](O)[C@H](O)[C@H]2O[C@@H]2O[C@H](C(=O)O)[C@@H](O)[C@H](O)[C@H]2O)CC[C@]2(C)[C@H]3C(=O)C=C4[C@H]5C[C@@](C)(C(=O)O)CC[C@]5(C)CC[C@@]4(C)[C@]3(C)CC[C@@H]12 [0.3 18α-GA, 18α-Glycyrrhizin] | 10.46 | 5.78
2 | OC[C@@H](O)[C@@H](O)[C@H](O)[C@H](O)CO [0.8 Man, D-Mannitol] | 14.20 | 9.22
3 | CC1(C)[C@@H](O[C@H]2O[C@H](C(=O)O)[C@@H](O)[C@H](O)[C@H]2O[C@@H]2O[C@H](C(=O)O)[C@@H](O)[C@H](O)[C@H]2O)CC[C@]2(C)[C@H]3C(=O)C=C4[C@H]5C[C@@](C)(C(=O)O)CC[C@]5(C)CC[C@@]4(C)[C@]3(C)CC[C@@H]12 [0.1 18α-GA, 18α-Glycyrrhizin] | 4.20 | 0.59
4 | CC1(C)[C@@H](O[C@H]2O[C@H](C(=O)O)[C@@H](O)[C@H](O)[C@H]2O[C@@H]2O[C@H](C(=O)O)[C@@H](O)[C@H](O)[C@H]2O)CC[C@]2(C)[C@H]3C(=O)C=C4[C@@H]5C[C@@](C)(C(=O)O)CC[C@]5(C)CC[C@@]4(C)[C@]3(C)CC[C@@H]12 [0.3 18β-GA, 18β-Glycyrrhizin] | 11.24 | 6.07
5 | OC[C@@H](O)[C@@H](O)[C@H](O)[C@H](O)CO [2.5 Man, D-Mannitol] | 40.24 | 33.98
6 | OC[C@@H](O)[C@@H](O)CO [1.2 Ery, D-Erythritol] | 23.08 | 18.69
7 | CC1(C)[C@@H](O[C@H]2O[C@H](C(=O)O)[C@@H](O)[C@H](O)[C@H]2O[C@@H]2O[C@H](C(=O)O)[C@@H](O)[C@H](O)[C@H]2O)CC[C@]2(C)[C@H]3C(=O)C=C4[C@@H]5C[C@@](C)(C(=O)O)CC[C@]5(C)CC[C@@]4(C)[C@]3(C)CC[C@@H]12 [0.04 18β-GA, 18β-Glycyrrhizin] | 0 | 0
8 | OC[C@@H](O)[C@@H](O)[C@H](O)[C@H](O)CO [0.5 Man, D-Mannitol] | 7.69 | 5.34
9 | OC[C@@H](O)[C@@H](O)CO [2.5 Ery, D-Erythritol] | 37.28 | 34.71
10 | OC[C@@H](O)[C@@H](O)[C@H](O)[C@H](O)CO [1.2 Man, D-Mannitol] | 24.85 | 13.59
11 | OC[C@@H](O)[C@@H](O)CO [0.8 Ery, D-Erythritol] | 15.98 | 8.25
12 | CC1(C)[C@@H](O[C@H]2O[C@H](C(=O)O)[C@@H](O)[C@H](O)[C@H]2O[C@@H]2O[C@H](C(=O)O)[C@@H](O)[C@H](O)[C@H]2O)CC[C@]2(C)[C@H]3C(=O)C=C4[C@@H]5C[C@@](C)(C(=O)O)CC[C@]5(C)CC[C@@]4(C)[C@]3(C)CC[C@@H]12 [0.1 18β-GA, 18β-Glycyrrhizin] | 3.55 | 0.97
